Measured values reported in ChEMBL document CHEMBL1201862, “PubChem BioAssay data set” (2004).
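Five concentrations, 48 hours, 96-well plates. GI50: concentration for 50% inhibition of growth.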 Calls of active or inactive are those of the source. Rule as the data show it: active = GI50 up to about 1.1 µM and inactive = higher.

Legend:
Assay in all cases: NCI-60 cell line screen, 48 h
DLD-1 = test system: DLD-1
HOP-18 = test system: HOP-18
LXFL 529 = test system: LXFL 529
M19-MEL = test system: M19-MEL
DMS-114 = test system: DMS-114
DMS-273 = test system: DMS-273
SNB-78 = test system: SNB-78
XF498 = test system: XF498
RXF 631 = test system: RXF 631

Structure (SMILES)	GI50 (DLD-1)	GI50 (HOP-18)	GI50 (LXFL 529)	GI50 (M19-MEL)	GI50 (DMS-114)	GI50 (DMS-273)	GI50 (SNB-78)	GI50 (XF498)	GI50 (RXF 631)
Cc1nn2c3c(nnc2c1C#N)C(=O)NN=C(N)S3	> 100 µM (inactive)	> 100 µM (inactive)	> 100 µM (inactive)	> 100 µM (inactive)					
FC(F)(F)c1nc(-c2ccccc2Cl)[nH]c1C(F)(F)F	1.13 µM (inactive)	0.364 µM (active)	0.935 µM (active)	0.697 µM (active)	0.673 µM (active)	0.873 µM (active)	1.06 µM (active)	0.621 µM (active)	
O=C(CSc1nnc(-c2ccc(/N=C\c3ccc(Cl)cc3)cc2)o1)Nc1ccccc1[N+](=O)[O-]		> 100 µM (inactive)	> 100 µM (inactive)	> 100 µM (inactive)	> 100 µM (inactive)	> 100 µM (inactive)	> 100 µM (inactive)	> 100 µM (inactive)	
O=C1c2ccccc2C(=O)C1C(c1ccc([N+](=O)[O-])cc1)C1C(=O)c2ccccc2C1=O	34.8 µM (inactive)	> 100 µM (inactive)	30.8 µM (inactive)		> 10 µM (inactive)	99.1 µM (inactive)	33.4 µM (inactive)	55.2 µM (inactive)	12.1 µM (inactive)
O=c1nc(NC(c2ccccc2)(c2ccccc2)c2ccccc2)ccn1CCNCCn1ccc(NC(c2ccccc2)(c2ccccc2)c2ccccc2)nc1=O	6.53 µM (inactive)	16.3 µM (inactive)	5.26 µM (inactive)	4.46 µM (inactive)	3.23 µM (inactive)	4.16 µM (inactive)		4.11 µM (inactive)	
CC1CC2C(=O)N(c3ccccc3)C(=O)C2c2c1c1ccccc1n2Cc1ccccc1 (stereo unspecified)	12.5 µM (inactive)		> 100 µM (inactive)	> 100 µM (inactive)	31 µM (inactive)				
C1=C(c2ccccc2)CN(c2ccccc2)OC1	78.5 µM (inactive)	2.71 µM (inactive)	64 µM (inactive)	47.5 µM (inactive)		> 100 µM (inactive)	> 100 µM (inactive)	> 100 µM (inactive)	
CCOC(=O)CC[C@H](NC(=O)c1nc[nH]c1[N+](=O)[O-])C(=O)OCC	> 100 µM (inactive)	> 100 µM (inactive)	> 100 µM (inactive)		> 100 µM (inactive)	> 100 µM (inactive)	> 100 µM (inactive)		
CCCCCCCCCCCC(=O)OCC1OC(n2cc(F)c(=O)[nH]c2=O)C(N)C(OC(=O)CCCCCCCCCCC)C1O (stereo unspecified)			33.9 µM (inactive)	> 100 µM (inactive)	49.5 µM (inactive)	44.3 µM (inactive)	71.1 µM (inactive)		
O=C(CCc1nnc(S)[nH]1)Nc1ccccc1Cl	> 100 µM (inactive)	> 100 µM (inactive)	> 100 µM (inactive)	> 100 µM (inactive)	> 100 µM (inactive)	> 100 µM (inactive)	> 100 µM (inactive)	> 100 µM (inactive)	
COC(=O)c1nc(N)nc(O)c1-c1ccc(Cl)cc1	> 100 µM (inactive)		> 100 µM (inactive)	> 100 µM (inactive)	> 100 µM (inactive)	> 100 µM (inactive)	> 100 µM (inactive)	> 100 µM (inactive)	> 100 µM (inactive)
NC(=O)N/N=C(\CCC(=O)N(Cc1ccccc1)Cc1ccccc1)CC(=O)c1ccc(F)cc1	> 100 µM (inactive)	> 100 µM (inactive)	> 100 µM (inactive)	> 100 µM (inactive)	> 100 µM (inactive)		> 100 µM (inactive)		> 100 µM (inactive)
CCOC(=O)N1CCC(=O)C(CNC23CC4CC(CC(C4)C2)C3)C1 (stereo unspecified)	21.1 µM (inactive)		18.3 µM (inactive)	20.4 µM (inactive)		25.2 µM (inactive)	> 10 µM (inactive)	18.1 µM (inactive)	> 100 µM (inactive)
COc1ccc(OC(=O)N2C/C(=C\c3ccccc3)C(=O)/C(=C/c3ccccc3)C2)cc1	1.71 µM (inactive)	16.8 µM (inactive)	2.64 µM (inactive)	1.38 µM (inactive)		2.09 µM (inactive)	3.43 µM (inactive)		
O=[N+]([O-])c1ccc(N2C[N+](c3ccccc3)=NC(c3ccccc3)=N2)cc1	32.2 µM (inactive)	21.1 µM (inactive)	30.2 µM (inactive)	75.3 µM (inactive)	22.5 µM (inactive)	45.1 µM (inactive)	> 100 µM (inactive)	21.4 µM (inactive)	
CC1(C)Cc2nnsc2C2=C1C(=O)CCS2	> 100 µM (inactive)	> 100 µM (inactive)	> 100 µM (inactive)		> 100 µM (inactive)	> 100 µM (inactive)			
CCC(/C(=N/NC(=O)C[N+](C)(C)C)c1ccccc1)C1OC(=O)c2ccccc21 (stereo unspecified)			> 100 µM (inactive)	> 100 µM (inactive)	> 100 µM (inactive)	> 100 µM (inactive)	> 100 µM (inactive)	> 100 µM (inactive)	> 100 µM (inactive)
COC(=O)C(C(=O)c1ccccc1)C(C(=O)C(=O)Nc1ccc(OC)cc1OC)C(=O)C(=O)c1ccc(C)cc1 (stereo unspecified)	> 100 µM (inactive)	> 100 µM (inactive)	> 100 µM (inactive)	> 100 µM (inactive)	> 100 µM (inactive)	> 100 µM (inactive)	> 100 µM (inactive)	> 100 µM (inactive)	> 100 µM (inactive)
O=C(O)CSc1nnc(-c2ccc(O)cc2)[nH]1	> 100 µM (inactive)	> 100 µM (inactive)		> 100 µM (inactive)	> 100 µM (inactive)	> 100 µM (inactive)	> 100 µM (inactive)	> 100 µM (inactive)	> 100 µM (inactive)
NNC(=O)CCC(=O)NC1C2CC3CC(C2)CC1C3 (stereo unspecified)	> 100 µM (inactive)		> 100 µM (inactive)	> 100 µM (inactive)	> 100 µM (inactive)	> 100 µM (inactive)	> 100 µM (inactive)		
COc1ccc(OCC(=O)O)c2c1CCC(C(C)C)C2=O (stereo unspecified)	> 100 µM (inactive)	> 100 µM (inactive)	> 100 µM (inactive)	> 100 µM (inactive)	> 100 µM (inactive)	> 100 µM (inactive)	> 100 µM (inactive)		> 100 µM (inactive)
Cc1c(C(=O)/C=C/c2ccc(Cl)cc2)[n+]([O-])c2ccccc2[n+]1[O-]	7.94 µM (inactive)	20.6 µM (inactive)	9.08 µM (inactive)	15.2 µM (inactive)	4.1 µM (inactive)	7.64 µM (inactive)	22.1 µM (inactive)		34.5 µM (inactive)
O=c1c2cc(Cl)ccc2n2nnc3ccc(NCCNCCO)c1c32	1.2 µM (inactive)		1.09 µM (active)	1.55 µM (inactive)	1.49 µM (inactive)	0.641 µM (active)	2.35 µM (inactive)		1.07 µM (active)
CC(=O)OC(/C=C1/C=CC(=O)O1)COC(=O)c1ccccc1 (stereo unspecified) [ACETYLMELODORINOL]	> 31.2 µM (inactive)	> 31.2 µM (inactive)	> 31.2 µM (inactive)	> 31.2 µM (inactive)	> 31.2 µM (inactive)	> 31.2 µM (inactive)	> 31.2 µM (inactive)	> 31.2 µM (inactive)	
